Earlier results in patent publication US4571403A, “Antianginal medicated compound” (Institut Organicheskoi Khimii Imeni N.D. Zelinskogo …, priority 1984, dated 1986).
Structures can show the parent of a compound that is named as a salt.

Tested on: myocardium / blood circulation
Conditions: prior art; cited from earlier work

Structure (SMILES) | incompatibility with other pharmaceutical preparations | side effects | adrenergic effect | blood flow / blood supply of ischemized zones of myocardium | contractability of the heart (inotropic effect) | duration of action | therapeutic range | contraindications | systemic arterial pressure
O=[N+]([O-])OCC(CO[N+](=O)[O-])O[N+](=O)[O-] [Trinitroglycerol, trinitroglycerol] | incompatibility with some other pharmaceutical preparations | bad tolerance of the preparation by certain categories of patients accompanied by strong headaches |  |  |  |  |  |  | 
CCCCc1oc2ccccc2c1C(=O)c1cc(I)c(OCCN(CC)CC)c(I)c1 [Cardaron, [2-butyl-3-benzofuranyl]-[4-(2-diethylaminoethoxy)-3,5-diodophenyl]ketone hydrochloride] |  | affection of eye cornea | antiadrenergic preparations with a mixed effect | no selective effect on blood supply of the ischemized zone of myocardium | negative inotropic effect on myocardium | short duration of its action | narrow therapeutic range |  | 
O=C(CCN1CCN2CCCC2C1)N1c2ccccc2Sc2ccc(Cl)cc21 (centres unmarked) [nonachlazine] |  |  | β-adrenostimulating component of the effect on myocardium |  |  |  |  | cannot be administered in the case of kidney and liver diseases | lasting hypertension of the arterial pressure
